The values that follow come from patent US20120270237A9, “METHODS FOR THE IDENTIFICATION OF KINASE INTERACTING MOLECULES AND FOR THE PURIFICATION OF KINASE PROTEINS” (Cellzone AG, priority 2009, published 2012).

Holding throughout (assay): Kinobeads competition binding, L-363 cell lysate
Holding throughout (parameters): endogenous in cells
What all share (settings): 10 μM free compound, L-363 lysate

The target in one test is CaMK2d (Homo sapiens, UniProt Q13557). The method, boiled down:
(§1)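 Steps: MG132 20 μM, 3 h, on L-363 cells; harvest and lyse; add 10 μM free compound (or DMSO control); add affinity beads with immobilized compound; elute in SDS buffer, run gel, in-gel trypsin digest; iTRAQ label; nano-LC-MS/MS quantification.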

The next test concerns the target FER (Homo sapiens, UniProt P16591). Summed up:
as §1

In another test the target is MLK3 (Homo sapiens, UniProt Q16584). The method, boiled down:
as §1

The target of another test is T1, GCK (Homo sapiens, UniProt Q12851).
T1 sequence (Q12851 1-820): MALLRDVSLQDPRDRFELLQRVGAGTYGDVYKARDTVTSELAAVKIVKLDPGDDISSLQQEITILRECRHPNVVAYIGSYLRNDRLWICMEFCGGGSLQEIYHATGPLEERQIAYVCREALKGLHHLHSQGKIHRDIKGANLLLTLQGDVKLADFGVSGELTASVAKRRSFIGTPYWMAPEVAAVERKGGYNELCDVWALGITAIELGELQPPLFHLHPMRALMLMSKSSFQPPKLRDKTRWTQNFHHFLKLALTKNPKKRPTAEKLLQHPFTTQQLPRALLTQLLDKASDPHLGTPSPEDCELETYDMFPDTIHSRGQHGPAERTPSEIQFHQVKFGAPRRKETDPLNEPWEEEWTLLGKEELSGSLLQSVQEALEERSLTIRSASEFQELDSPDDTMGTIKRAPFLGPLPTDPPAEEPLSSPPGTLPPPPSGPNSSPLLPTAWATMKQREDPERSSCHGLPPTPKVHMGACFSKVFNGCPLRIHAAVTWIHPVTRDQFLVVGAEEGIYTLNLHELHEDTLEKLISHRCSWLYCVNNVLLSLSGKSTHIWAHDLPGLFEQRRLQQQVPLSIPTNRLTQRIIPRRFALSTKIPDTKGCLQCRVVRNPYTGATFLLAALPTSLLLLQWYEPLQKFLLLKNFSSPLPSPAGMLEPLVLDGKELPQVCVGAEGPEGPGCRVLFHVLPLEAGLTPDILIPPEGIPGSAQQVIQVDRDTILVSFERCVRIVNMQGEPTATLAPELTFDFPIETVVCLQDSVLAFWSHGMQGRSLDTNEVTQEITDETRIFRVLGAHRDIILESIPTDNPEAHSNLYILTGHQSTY
The method, boiled down:
as §1

The next test deals with AMPKa1 (Homo sapiens, UniProt Q13131). Summed up: as §1
The next test has as its target T2, IRAK4 (Homo sapiens, UniProt Q9NWZ3).
T2 sequence (Q9NWZ3 1-460): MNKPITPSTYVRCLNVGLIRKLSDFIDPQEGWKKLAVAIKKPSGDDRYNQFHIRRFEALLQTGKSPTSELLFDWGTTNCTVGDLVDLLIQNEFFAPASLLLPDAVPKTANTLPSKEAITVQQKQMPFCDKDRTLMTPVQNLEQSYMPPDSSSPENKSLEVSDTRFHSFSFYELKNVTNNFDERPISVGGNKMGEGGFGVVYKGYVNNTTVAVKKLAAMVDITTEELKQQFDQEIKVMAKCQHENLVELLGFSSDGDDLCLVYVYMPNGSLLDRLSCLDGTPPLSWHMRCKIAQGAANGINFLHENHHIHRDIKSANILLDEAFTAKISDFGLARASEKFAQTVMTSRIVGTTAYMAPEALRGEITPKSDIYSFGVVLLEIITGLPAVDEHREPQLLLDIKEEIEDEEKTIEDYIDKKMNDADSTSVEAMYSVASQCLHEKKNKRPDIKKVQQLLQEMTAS
Summed up: as §1

Another test addresses HIPK2 (Homo sapiens, UniProt Q9H2X6). Summed up:
as §1

The target in another test is CK2a2 (Homo sapiens, UniProt P19784). The method, boiled down: as §1
The next test has as its target CDK5 (Homo sapiens, UniProt Q00535). Summed up: as §1
A further test deals with T3, TEC (Homo sapiens, UniProt P42680).
T3 sequence (P42680 1-631): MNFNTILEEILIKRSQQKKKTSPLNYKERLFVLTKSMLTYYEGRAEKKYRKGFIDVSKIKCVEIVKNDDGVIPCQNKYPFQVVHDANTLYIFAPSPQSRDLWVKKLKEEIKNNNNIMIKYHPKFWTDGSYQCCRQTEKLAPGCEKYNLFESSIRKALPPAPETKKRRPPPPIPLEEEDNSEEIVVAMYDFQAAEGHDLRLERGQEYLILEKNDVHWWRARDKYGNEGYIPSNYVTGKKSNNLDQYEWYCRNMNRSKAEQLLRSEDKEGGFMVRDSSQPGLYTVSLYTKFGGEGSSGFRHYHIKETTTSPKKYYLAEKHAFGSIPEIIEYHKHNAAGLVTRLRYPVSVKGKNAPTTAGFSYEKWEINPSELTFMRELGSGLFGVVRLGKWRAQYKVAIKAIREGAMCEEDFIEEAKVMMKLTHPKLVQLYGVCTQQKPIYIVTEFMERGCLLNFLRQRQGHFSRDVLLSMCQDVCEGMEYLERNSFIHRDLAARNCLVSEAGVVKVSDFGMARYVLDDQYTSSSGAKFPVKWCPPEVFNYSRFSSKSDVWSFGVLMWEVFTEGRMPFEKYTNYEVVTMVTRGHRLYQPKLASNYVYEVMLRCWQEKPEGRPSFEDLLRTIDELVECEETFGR
The method, boiled down: as §1

A word on the inhibition: it is the share of the control response that was lost under treatment. Read a low inhibition as little suppression. In the case of `CS(=O)(=O)Nc1ccccc1Nc1nc(Nc2cccc(OCCN)c2)ncc1Cl` [CZC31326, N-(2-(2-(3-(2-aminoethoxy)phenylamino)-5-chloropyrimidin-4-ylamino)phenyl)methanesulfonamide], the inhibition at 10 µM at CaMK2d amounted to 78%; on FER, 97.8%; at GCK it was 95.1%; at AMPKa1 it was 97.7%; at HIPK2, 95.6%; on CK2a2, 97.5%. Also, the inhibition at 10 µM at CDK5 came out at 96.4%; on TEC, 92.8%. The Competition % at MLK3 is 97.5%; on IRAK4 it was 97.4%.
